# ± gives the expanded uncertainty stated by the source.
# Conditions: Pendant drop shape
smiles,measurement,setting,value
O [water],surface tension liquid-gas,293.15 K,72.75 ± 0.84 mN/m
same,surface tension liquid-gas,298.15 K,71.97 ± 0.84 mN/m
same,surface tension liquid-gas,303.15 K,71.15 ± 0.83 mN/m
same,surface tension liquid-gas,313.15 K,69.55 ± 0.83 mN/m
same,surface tension liquid-gas,323.15 K,67.9 ± 0.82 mN/m
same,surface tension liquid-gas,333.15 K,66.17 ± 0.81 mN/m
same,surface tension liquid-gas,343.15 K,64.39 ± 0.8 mN/m
same,surface tension liquid-gas,353.15 K,62.61 ± 0.79 mN/m

# — the NIST ThermoML archive (doi:10.1021/acs.jced.7b00503)
